Measurements: article PMC8488497, “In silico and in vitro analysis of an Aspergillus niger chitin deacetylase to decipher its subsite sugar preferences” (The Journal of Biological Chemistry, 2021)

Target: T1, AngCDA (Aspergillus niger, UniProt A2QZC8)
T1 construct: gene An12g04480; signal peptide (residues 1-19) removed; N- and C-terminal Strep-tag II; E. coli Rosetta 2 (DE3); monomer; the crystal used a pelB / C-terminal Strep-tag II construct
T1 sequence (A2QZC8 20-239): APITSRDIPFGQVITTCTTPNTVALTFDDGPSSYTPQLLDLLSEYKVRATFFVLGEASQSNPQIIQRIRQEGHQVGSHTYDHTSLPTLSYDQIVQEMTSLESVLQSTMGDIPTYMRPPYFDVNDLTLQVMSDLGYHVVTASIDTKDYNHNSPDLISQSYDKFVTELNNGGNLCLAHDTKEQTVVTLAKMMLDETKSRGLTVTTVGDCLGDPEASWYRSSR
Test: HILIC-ESI-MS product quantification and sequencing
Format: biochemical
Details: deacetylation; 0.5 mM substrate, 50 mM TEA pH 7, 37 °C

| SMILES | HILIC-ESI-MS product quantification and sequencing |
| --- | --- |
| CC(=O)N[C@H]1[C@H](O[C@H]2[C@H](O)[C@@H](NC(C)=O)C(O)O[C@@H]2CO)O[C@H](CO)[C@@H](O[C@@H]2O[C@H](CO)[C@@H](O[C@@H]3O[C@H](CO)[C@@H](O)[C@H](O)[C@H]3NC(C)=O)[C@H](O)[C@H]2NC(C)=O)[C@@H]1O (some centres unmarked) [A4, chitotetraose] | mode of action of AngCDA deacetylating chitotetraose (A4) |
| CC(=O)N[C@H]1[C@H](O[C@H]2[C@H](O)[C@@H](NC(C)=O)[C@H](O[C@H]3[C@H](O)[C@@H](NC(C)=O)C(O)O[C@@H]3CO)O[C@@H]2CO)O[C@H](CO)[C@@H](O[C@@H]2O[C@H](CO)[C@@H](O[C@@H]3O[C@H](CO)[C@@H](O)[C@H](O)[C@H]3NC(C)=O)[C@H](O)[C@H]2NC(C)=O)[C@@H]1O (some centres unmarked) [A5] | mode of action of AngCDA deacetylating chitopentaose (A5) |
